Measurements taken from patent publication US8101760B2, “Glucocorticoid receptor modulator and methods of use” (Eli Lilly and Company, priority 2007, dated 2012).

Legend:
[1] = target: T1, human GR (glucocorticoid receptor) (Homo sapiens, UniProt P04150); test: Nuclear hormone receptor binding assay, GR; conditions: HEK293 cell lysate expressing human GR, [3H]-dexamethasone; mean of 5 determinations
T1 construct: expressed in transfected cells; host or cells: HEK293 (lysate, '293-GR lysate')
T1 sequence (P04150 1-777): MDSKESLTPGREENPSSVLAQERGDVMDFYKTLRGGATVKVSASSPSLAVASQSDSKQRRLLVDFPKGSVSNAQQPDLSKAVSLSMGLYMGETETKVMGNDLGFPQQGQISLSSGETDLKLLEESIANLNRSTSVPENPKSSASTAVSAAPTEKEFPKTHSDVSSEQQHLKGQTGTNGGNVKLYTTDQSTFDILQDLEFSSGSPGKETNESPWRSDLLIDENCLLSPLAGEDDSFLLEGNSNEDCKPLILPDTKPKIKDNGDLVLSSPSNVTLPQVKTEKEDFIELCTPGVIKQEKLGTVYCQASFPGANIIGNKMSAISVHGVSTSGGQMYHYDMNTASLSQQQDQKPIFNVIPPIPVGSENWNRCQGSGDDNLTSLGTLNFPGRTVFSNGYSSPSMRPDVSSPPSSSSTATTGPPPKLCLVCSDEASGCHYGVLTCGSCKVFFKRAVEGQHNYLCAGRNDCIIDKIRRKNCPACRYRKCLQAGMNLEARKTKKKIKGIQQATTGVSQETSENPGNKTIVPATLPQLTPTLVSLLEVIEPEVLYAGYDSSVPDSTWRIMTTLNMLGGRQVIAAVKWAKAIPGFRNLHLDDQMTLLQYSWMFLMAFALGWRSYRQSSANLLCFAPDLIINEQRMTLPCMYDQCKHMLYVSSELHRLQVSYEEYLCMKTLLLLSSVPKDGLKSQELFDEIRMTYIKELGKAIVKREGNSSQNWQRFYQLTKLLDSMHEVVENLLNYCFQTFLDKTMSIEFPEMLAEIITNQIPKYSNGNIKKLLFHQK
Method: (§1) Cell lysates from human embryonic kidney HEK293 cells overexpressing human GR (glucocorticoid receptor), AR (androgen receptor), MR (mineralocorticoid receptor), or PR (progesterone receptor) are used for receptor-ligand competition binding assays to determine Ki values.
(§2) Briefly, steroid receptor competition binding assays are run in a buffer containing 20 mM Hepes buffer (pH=7.6), 0.2 mM EDTA, 75 mM NaCl, 1.5 mM MgCl2, 20% glycerol, 20 mM sodium molybdate, 0.2 mM DTT (dithiothreitol), 20 μg/mL aprotinin and 20 μg/mL leupeptin. Typically, steroid receptor binding assays include radio-labeled ligands, such as 0.3 nM [^3H]-dexamethasone for GR binding, 0.36 nM [^3H]-methyltrienolone for AR binding, 0.25 nM [^3H]-aldosterone for MR binding, and 0.29 nM [^3H]-methyltrienolone for PR binding, and either 20 μg 293-GR lysate, 22 μg 293-AR lysate, 20 μg 293-MR lysate or 40 μg 293-PR lysate per well. Assays are typically run in 96-well format. Competing test compounds are added at various concentrations ranging from about 0.01 nM to 10 μM. Non-specific binding is determined in the presence of 500 nM dexamethasone for GR binding, 500 nM aldosterone for MR binding, or 500 nM methyltrienolone for AR and PR binding. […] After an incubation of 2 hours, plates are read in a Wallac Microbeta counter. […]

[2] = target: T2, human MR (mineralocorticoid receptor) (Homo sapiens, UniProt P08235); test: Nuclear hormone receptor binding assay, MR
T2 construct: expressed in transfected cells; host or cells: HEK293 (lysate, '293-MR lysate')
T2 sequence (P08235 1-984): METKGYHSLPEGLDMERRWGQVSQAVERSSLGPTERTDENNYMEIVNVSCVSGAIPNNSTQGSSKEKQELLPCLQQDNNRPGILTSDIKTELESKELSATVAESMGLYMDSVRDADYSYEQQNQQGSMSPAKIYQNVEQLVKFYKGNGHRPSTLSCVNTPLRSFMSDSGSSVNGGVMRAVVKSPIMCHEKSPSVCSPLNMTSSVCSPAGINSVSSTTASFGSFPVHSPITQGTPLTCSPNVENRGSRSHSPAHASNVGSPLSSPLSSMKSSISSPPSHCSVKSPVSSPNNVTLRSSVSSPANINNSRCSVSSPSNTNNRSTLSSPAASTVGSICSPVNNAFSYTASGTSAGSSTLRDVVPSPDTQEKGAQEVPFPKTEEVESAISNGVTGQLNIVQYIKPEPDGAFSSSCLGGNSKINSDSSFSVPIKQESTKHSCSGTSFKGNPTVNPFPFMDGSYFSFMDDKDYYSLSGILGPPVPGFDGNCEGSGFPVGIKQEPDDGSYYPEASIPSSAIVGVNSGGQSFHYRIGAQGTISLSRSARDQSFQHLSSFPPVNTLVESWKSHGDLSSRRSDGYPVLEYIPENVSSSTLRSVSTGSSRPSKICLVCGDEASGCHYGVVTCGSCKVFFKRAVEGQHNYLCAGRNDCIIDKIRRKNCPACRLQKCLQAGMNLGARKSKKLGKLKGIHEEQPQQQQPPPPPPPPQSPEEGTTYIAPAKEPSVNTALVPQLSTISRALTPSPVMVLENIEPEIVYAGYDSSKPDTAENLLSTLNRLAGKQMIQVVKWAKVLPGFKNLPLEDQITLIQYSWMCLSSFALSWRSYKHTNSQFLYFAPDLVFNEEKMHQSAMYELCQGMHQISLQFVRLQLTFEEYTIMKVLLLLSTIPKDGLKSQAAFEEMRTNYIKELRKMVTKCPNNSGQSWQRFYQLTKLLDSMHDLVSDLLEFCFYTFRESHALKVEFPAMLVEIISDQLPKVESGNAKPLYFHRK
Method: as §1, §2

[3] = Bioavailability and plasma exposure after oral administration to test animals; assay type: in vivo

Ki [1]: 0.35 nM
Ki ([2]; HEK293 cell lysate expressing human MR, [3H]-aldosterone, mean of 5 determinations): 117 nM
greater affinity for GR relative to MR ([2]; binding selectivity GR vs MR): ≥ 30 fold
bioavailability [3]: good
plasma exposure [3]: good
Compound: CC/C(=C1\c2ccc(Cl)cc2OCc2ncccc21)c1cccc(NS(C)(=O)=O)c1 [Compound (I), (E)-N-{3-[1-(8-Chloro-11H-10-oxa-1-aza-dibenzo[a,d]cyclohepten-5-ylidene)-propyl]-phenyl}-methanesulfonamide]
